Reference: patent US7550604B2, “Pyrroloterpenes and use of the same as antimicrobial and anticancer agents” (Nereus Pharmaceuticals, Inc., priority 2004, dated 2009)

Tests used:
Assay type in all cases: cell-based
B16-F10 cells = test: Growth inhibition of murine melanoma B16-F10 cells (resazurin)
Experimental: B16-F10 (ATCC; CRL-6475) a murine melanoma cell line was maintained in complete Dulbecco's Modification of Eagle's Medium (DMEM) (DMEM supplemented with 10% (v/v) Fetal bovine serum, 2 mM glutamine, 10 mM HEPES and Penicillin/Streptomycin at 100 IU/ml and 100 μg/ml respectively). The cells were cultured in an incubator at 37° C. in 5% CO2 and 95% humidified air. For cell growth inhibition assays, B16-F10 cells were seeded at 1.25×10^3 cells/well in 90 μl complete media into Corning 3904 black-walled, clear-bottom tissue culture plates and the plates were incubated overnight to allow cells to establish and enter log phase growth. Two independent assays were performed using 200 mM or 400 mM stock solutions prepared in 100% DMSO. 10× concentrated serial dilutions of the compound of Formula (V) were prepared in appropriate culture medium. Ten μl volumes of the serial dilutions were added to the test wells in triplicate resulting in final concentrations ranging from 500 μM to 158 nM or 1 mM to 7.81 μM. The plates were returned to the incubator for 48 hours. The final concentration of DMSO was 0.25% in all samples. […] Since living cells metabolize Resazurin, the fluorescence of the reduction product of Resazurin was measured using a Fusion microplate fluorometer (Packard Bioscience) with λex =535 nm and λem=590 nm filters. […]

HT-29 cells = test: Growth inhibition of human colorectal adenocarcinoma HT-29 cells (resazurin)
Experimental: HT-29 (ATCC; HTB-38) a human colorectal adenocarcinoma cell line was maintained in complete McCoy's 5A medium (McCoy's 5A medium supplemented with 10% (v/v) Fetal bovine serum, 2 mM glutamine, 10 mM HEPES, 1% (v/v) non-essential amino acids (NEAA), 1 mM sodium pyruvate and Penicillin/Streptomycin at 100 IU/ml and 100 μg/ml respectively). The cells were cultured in an incubator at 37° C. in 5% CO2 and 95% humidified air. For cell growth inhibition assays, HT-29 cells were seeded at 5×10^3 cells/well in 90 μl complete media into Corning 3904 black-walled, clear-bottom tissue culture plates and the plates were incubated overnight to allow cells to establish and enter log phase growth. Two independent assays were performed using 200 mM or 400 mM stock solutions prepared in 100% DMSO. 10× concentrated serial dilutions of the compound of Formula (V) were prepared in appropriate culture medium. Ten μl volumes of the serial dilutions were added to the test wells in triplicate resulting in final concentrations ranging from 500 μM to 158 nM or 1 mM to 7.81 μM. The plates were returned to the incubator for 48 hours. The final concentration of DMSO was 0.25% in all samples. […] Since living cells metabolize Resazurin, the fluorescence of the reduction product of Resazurin was measured using a Fusion microplate fluorometer (Packard Bioscience) with λex =535 nm and λem=[…] filters. […]

Candida albicans = test: Antimicrobial MIC assay (NCCLS M7-A5)
Experimental: (§1) Minimum inhibitory concentrations (MICs) were determined according to the National Committee for Clinical Laboratory Standards (NCCLS) susceptibility test guideline M7-A5 (Ferraro, M. 2001 Methods for Dilution Antimicrobial Susceptibility Tests for Bacteria that Grow Aerobically; Approved Standard (NCCLS). National Committee for Clinical Laboratory Standards (NCCLS), Villanova, which is incorporated herein by reference in its entirety).

[1] = test system: Staphylococcus aureus - MSSA; test: Antimicrobial MIC assay (NCCLS M7-A5)
Experimental: as §1

Escherichia coli imp = test: Antimicrobial MIC assay (NCCLS M7-A5)
Experimental: as §1

Bacillus cereus 14579 = test: Antimicrobial MIC assay (NCCLS M7-A5)
Experimental: as §1

In the case of `CC(=C/C(=O)c1ccc[nH]1)/C=C/C(O)C1(C)CCC(C(C)(C)O)O1` (stereo not shown) [Formula (V)], the “inhibition of growth of B16-F10 tumor cells (in words)” value (B16-F10 cells; B16-F10) is reported as “able to inhibit the growth”, the EC50 (B16-F10 cells; Mus musculus, B16-F10, 48 hours drug exposure, resazurin fluorescence, read-out: EC50 against B16-F10 cells) is reported as 260 µM and the “inhibition of growth of HT-29 tumor cells (in words)” value (HT-29 cells; HT-29) is reported as “able to inhibit the growth”. For the same compound, the EC50 (HT-29 cells; Homo sapiens, HT-29, 48 hours drug exposure, resazurin fluorescence, read-out: EC50 against HT-29 cells) was 286 µM, the MIC (Candida albicans) was over 128 µg/mL and the MIC ([1]; Staphylococcus aureus - MSSA) was 64 µg/mL. For the same compound, the “anti-bacterial activity versus gram positive microorganisms (in words)” value ([1]; gram positive: Staphylococcus aureus - MSSA) was “possess anti-bacterial activity”, the MIC (Escherichia coli imp) was 128 µg/mL and the MIC (Bacillus cereus 14579; Bacillus cereus 14579) was 72 µg/mL. The “anti-bacterial activity versus gram positive microorganisms (in words)” value (Bacillus cereus 14579; gram positive: Bacillus cereus 14579) was “possess anti-bacterial activity”.
